Source: article PMC12766724, “Synthesis, Anthelmintic Activity, and Mechanism of Action of 5‑Aryl‑1H‑indoles” (Journal of Agricultural and Food Chemistry, 2025)

Key:
Type in all cases: in vivo, Caenorhabditis elegans
C. elegans N2 wild-type = assay: Chitinase assay (reproductive capacity); conditions: Caenorhabditis elegans
Protocol: The effect of compounds on C. elegans was evaluated using the Chitinase assay as we described previously.
After exposing L1 larvae to the compounds for 4 days, we observed the populations under a microscope and measured the Chitinase activity. The larvae produce the enzyme while hatching, and its activity is indicative of the reproductive capacity of the worms. Populations that fail to reproduce due to acute or reproductive toxicity or developmental abnormalities are detected.

C. elegans N2 = assay: Scoring of developmental rates, L1 exposed 5 days; set-up: key: 1 = dead/arrested at L1 … 5 = healthy, normal reproduction; conditions: 1 µM (control)
Excerpt: (§1) Dead or mostly immobile worms, arrested at the L1 stage, received a score of 1. Populations with severely delayed development were scored as 2. More developmentally advanced, but still obviously delayed worms were given the score of 3. Adult worms that produce a noticeably lower number of progeny received a score of 4. Healthy worms that reproduce normally (i.e., hundreds of eggs and larvae are present) were scored as 5 (see Figure C for representative images). In a typical, correctly prepared experiment, vehicle-treated populations should receive a score of 5, while worms treated with ivermectin (positive control) should receive a score of 1. […]

[1] = system: C. elegans complex II mutant RP2699; assay: Scoring of developmental rates, L1 exposed 5 days; conditions: 1 µM (control)
Excerpt: as §1

[2] = system: C. elegans complex II mutant RP2700; assay: Scoring of developmental rates, L1 exposed 5 days; conditions: 1 µM (control)
Excerpt: as §1

[3] = system: C. elegans complex II mutant RP2702; assay: Scoring of developmental rates, L1 exposed 5 days; conditions: 1 µM (control)
Excerpt: as §1

Row | Compound | IC50 (C. elegans N2 wild-type) [µM] | mean score (1-5) (C. elegans N2) | mean score (1-5) [1] | mean score (1-5) [2] | mean score (1-5) [3]
1 | COc1ccc(-c2ccc3[nH]ccc3c2)cc1 [i-7] | 15.8 ± 1.78 | – | – | – | –
2 | CC[C@H](C)[C@H]1O[C@]2(CC[C@@H]1C)C[C@@H]1C[C@@H](C/C=C(\C)[C@@H](O[C@H]3C[C@H](OC)[C@@H](O[C@H]4C[C@H](OC)[C@@H](O)[C@H](C)O4)[C@H](C)O3)[C@@H](C)/C=C/C=C3\CO[C@@H]4[C@H](O)C(C)=C[C@@H](C(=O)O1)[C@]34O)O2 [ivermectin, reference compound] | – | 1 | 1.333 | 1 | 1
